Reference: the SangsterLogP compilation

test: method code SF-HPLC, from DOI: 10.1021/jm00151a006, PMID: 3510299

**Q.** With `CN(Cc1cccc(C(F)(F)F)c1)N=O` as the compound, how does the logP read?
**A.** 1.99

**Q.** For `COc1cccc(CN(C)N=O)c1`, which logP is on record?
**A.** 1.6

**Q.** Which logP does the source give for `COc1ccc(CN(C)N=O)cc1` here?
**A.** 1.62

**Q.** For `CN(Cc1ccc(F)cc1)N=O`, which logP is on record?
**A.** 1.67

**Q.** With `CN(Cc1cccc([N+](=O)[O-])c1)N=O` as the compound, how does the logP read?
**A.** 1.17

**Q.** For `Cc1cccc(CN(C)N=O)c1`, which logP is on record?
**A.** 1.96

**Q.** With `CN(Cc1ccc(Cl)cc1)N=O` as the compound, how does the logP read?
**A.** 2.19

**Q.** With `CN(Cc1cccc(Cl)c1)N=O` as the compound, how does the logP read?
**A.** 1.46

**Q.** With `Cc1ccc(CN(C)N=O)cc1` as the compound, how does the logP read?
**A.** 2.14

**Q.** For `CN(Cc1ccc(C#N)cc1)N=O`, which logP is on record?
**A.** 0.99

**Q.** For `CN(Cc1ccc([N+](=O)[O-])cc1)N=O`, which logP is on record?
**A.** 0.82

**Q.** Which logP does the source give for `CN(Cc1ccccc1)N=O` here?
**A.** 1.55
